Source: ChEMBL document CHEMBL1128852, “Butyrophenone analogues: Synthesis of 2-methyl-3-ethyl-5-aminoethyl-4,5,6,7-tetrahydroindol-4-ones, and their affinities for d1, d2 and 5-ht2a receptors” (Bioorg Med Chem Lett, 1995)

Key:
[1] = target: 5-hydroxytryptamine receptor 2A (Rattus norvegicus, UniProt P14842); assay: Inhibition constant for in vitro inhibition of [3H]ketanserin binding to rat frontal cortex membranes 5-hydroxytryptamine 2A receptor; assay type: cell membranes, Membrane
D(2) dopamine receptor = D(2) dopamine receptor (Rattus norvegicus, UniProt P61169); assay: Inhibition constant for in vitro inhibition of [3H]spiperone binding to striatal membranes Dopamine receptor D2
Sequence of D(2) dopamine receptor (P61169 whole entry): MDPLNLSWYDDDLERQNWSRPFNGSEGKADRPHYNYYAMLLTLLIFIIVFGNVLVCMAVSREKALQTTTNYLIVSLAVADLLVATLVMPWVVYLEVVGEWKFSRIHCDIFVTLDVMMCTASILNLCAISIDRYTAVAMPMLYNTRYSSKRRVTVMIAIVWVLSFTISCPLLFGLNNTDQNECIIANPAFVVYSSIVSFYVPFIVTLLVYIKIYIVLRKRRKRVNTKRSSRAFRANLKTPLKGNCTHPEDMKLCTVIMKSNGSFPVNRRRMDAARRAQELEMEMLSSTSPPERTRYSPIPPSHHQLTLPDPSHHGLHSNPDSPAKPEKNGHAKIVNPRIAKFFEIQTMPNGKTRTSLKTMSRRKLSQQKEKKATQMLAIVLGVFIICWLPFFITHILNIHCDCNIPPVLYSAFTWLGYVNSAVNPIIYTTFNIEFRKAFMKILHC

D(1A) dopamine receptor = D(1A) dopamine receptor (Rattus norvegicus, UniProt P18901); assay: Inhibition constant for in vitro inhibition of [3H]-SCH- 23390 binding to striatal membranes Dopamine receptor D1; parameters: species or system Striatum, Membrane
Sequence of D(1A) dopamine receptor (P18901 whole entry): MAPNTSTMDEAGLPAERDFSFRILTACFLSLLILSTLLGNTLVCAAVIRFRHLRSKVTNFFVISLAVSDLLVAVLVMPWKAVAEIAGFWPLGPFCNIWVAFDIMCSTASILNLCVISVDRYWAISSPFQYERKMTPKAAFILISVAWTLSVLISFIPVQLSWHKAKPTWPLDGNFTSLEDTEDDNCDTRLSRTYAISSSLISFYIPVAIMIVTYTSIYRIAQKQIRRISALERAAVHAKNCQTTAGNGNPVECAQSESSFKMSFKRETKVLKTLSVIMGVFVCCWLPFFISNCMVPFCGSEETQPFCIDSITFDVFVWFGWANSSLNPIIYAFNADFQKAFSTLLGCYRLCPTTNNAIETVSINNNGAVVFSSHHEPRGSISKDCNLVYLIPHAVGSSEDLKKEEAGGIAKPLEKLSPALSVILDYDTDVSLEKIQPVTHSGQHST

Rattus norvegicus [2] = species: Rattus norvegicus; assay: (§1) Competitive antagonism against serotonin-induced contractions in rat aorta ring stripped of endothelium; assay type: functional; settings: read-out: pA2 (converted)
Rattus norvegicus [3] = species: Rattus norvegicus; assay: as §1; settings: read-out: pA2 (converted)

Sequence of 5-hydroxytryptamine receptor 2A (P14842 whole entry): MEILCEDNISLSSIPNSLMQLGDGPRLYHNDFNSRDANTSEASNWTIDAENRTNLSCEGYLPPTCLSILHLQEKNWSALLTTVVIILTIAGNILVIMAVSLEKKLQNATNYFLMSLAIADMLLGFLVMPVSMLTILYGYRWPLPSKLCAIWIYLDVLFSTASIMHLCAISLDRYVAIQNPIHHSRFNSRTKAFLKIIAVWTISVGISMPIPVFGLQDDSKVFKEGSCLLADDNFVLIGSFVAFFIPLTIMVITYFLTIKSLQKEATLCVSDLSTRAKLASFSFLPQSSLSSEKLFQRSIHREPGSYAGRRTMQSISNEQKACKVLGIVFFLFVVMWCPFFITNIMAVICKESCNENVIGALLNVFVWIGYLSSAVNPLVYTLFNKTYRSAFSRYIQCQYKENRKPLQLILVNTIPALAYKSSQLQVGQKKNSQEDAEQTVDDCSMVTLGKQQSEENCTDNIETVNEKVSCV

Row | SMILES | Ki [1] [nM] | Ki (D(2) dopamine receptor) [nM] | Ki (D(1A) dopamine receptor) [nM] | Kb (Rattus norvegicus [2]) [nM] | Kb (Rattus norvegicus [3]) [nM]
1 | CCc1c(C)[nH]c2c1C(=O)C(CCN1CCN(c3ccccc3OC)CC1)CC2 (centres undefined) | 91.2 | 28.2 | 1170 | 31.6 | –
2 | CCc1c(C)[nH]c2c1C(=O)C(CN1CCOCC1)CC2 (centres undefined) [MOLINDONE] | – | – | 1580 | – | –
3 | CCc1c(C)[nH]c2c1C(=O)C(CCN1CCOCC1)CC2 (centres undefined) | 912 | 589 | 2140 | – | 105
